Tests used:
AsPC-1 cells (KRAS G12D) [1] = assay: Cell-based pERK HTRF assay in AsPC-1 cells (Biological Example 5); conditions: Homo sapiens, ASPC1, AsPC-1 (KRAS G12D) cells
In short: (§1)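 Cells seeded at 2.5×10^4/well in 10% FBS medium overnight, then treated 2 h at 37 °C with a 9-point, 3-fold compound series (0.25% DMSO). Lysates read by HTRF for pERK1/2 (Thr202/Tyr204), 665/620 nm ratio; EC50 from four-parameter fit.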

SW1900 cells (KRAS G12D) [2] = assay: Cell-based pERK HTRF assay in SW1900 cells (Biological Example 5); conditions: Homo sapiens, SW1990, SW1990 cells (text: SW1900, KRAS G12D)
In short: as §1

HPAC cells (KRAS G12D) [3] = assay: Cell-based pERK HTRF assay in HPAC cells (Biological Example 5); conditions: Homo sapiens, HPAC
In short: as §1

[4] = system: Capan-2 cells (KRAS G12V); assay: Cell-based pERK HTRF assay in Capan-2 cells (Biological Example 5); conditions: Homo sapiens, Capan-2, Capan-2 (KRAS G12V) cells
In short: as §1

H358 cells (KRAS G12C) [5] = assay: Cell-based pERK HTRF assay in H358 cells (Biological Example 5); conditions: Homo sapiens, NCI-H358, H358 (KRAS G12C) cells
Description: (§2) Biological Example 5: Cell-based PERK HTRF assay in AsPC-1, SW1900, HPAC, Capan-2, RKN, H358, HCT116, KP-2, H1573, A549, MKN1, and HT1080 cells
(§3) The inhibition of ERK phosphorylation, as measured using the HTRF Advanced Phospho-ERK 1/2 (Thr202/Tyr204) Detection Assay kit (Perkin Elmer), was used to determine the effectiveness of test compounds in disrupting KRAS-driven protein/effector signaling in cells.
(§4) On day 1, cells were seeded into 96-well plates at 2.5×10^4 cells/well in 100 μL of complete growth media supplemented with 10% fetal bovine serum (FBS) and incubated at 37° C., in the presence of 5% CO2.
(§5) On day 2, cells were treated with compounds diluted in DMSO at 0.25% final DMSO concentration. Compounds were dosed in a 9-point concentration curve with three-fold dilution between concentrations. Cells were incubated in the presence of compound for two hours at 37° C. Following this treatment period, cells were harvested by aspirating the media, adding 40 μL of kit-supplied 1x lysis buffer per well, and shaking for 30 minutes at 250 rpm at room temperature.
(§6) Following cell lysis, samples were homogenized by pipetting up and down twenty times and 16 μL of cell lysate per well was transferred from the 96-well cell culture plate to two wells of a 384-well detection plate. A complete detection buffer was prepared by diluting D2 and Eu Cryptate antibodies 1:20 in kit-provided detection solution, 4 μL of complete detection buffer was then added to each well with lysate. Plates were incubated with gentle rocking for 24 hours at 4° C.
(§7) Following this incubation period, plates were centrifuged at 500×g for one minute and analyzed on a CLARIOstar plate reader. Data was imported into Microsoft Excel and the signal from the 665 nm channel was divided by the signal from the 620 nm channel. % pERK was calculated as: […]
(§8) Data was imported to the Prism software package (Graphpad) and EC50 values were calculated using the log (inhibitor) vs, response—variable slopc (Four parameters) model.

[6] = system: MKN1 cells (KRAS amplification); assay: Cell-based pERK HTRF assay in MKN1 cells (Biological Example 5); conditions: Homo sapiens, MKN-1, MKN cells (MKN1, KRAS amplification)
In short: as §1

HT1080 cells (NRAS) [7] = assay: Cell-based pERK HTRF assay in HT1080 cells (Biological Example 5); conditions: Homo sapiens, HT-1080
In short: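 Cells seeded at 2.5×10^4/well in 10% FBS medium overnight, then treated 2 h at 37° C with a 9-point, three-fold compound dilution series (0.25% DMSO final). Lysates were read by HTRF for pERK1/2 (Thr202/Tyr204) after 24 h at 4° C; EC50 came from a four-parameter fit of 665/620 nm ratios.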

AsPC-1 cells (KRAS G12D) [8] = assay: 3D Cell viability assay in AsPC-1 cells (Biological Example 6); format: cell-based; conditions: Homo sapiens, ASPC1; AsPC-1 (KRAS G12D) spheroids, 72 hours
Description: Biological Example 6: 3D Cell viability assay in AsPC-1, SW1900, HPAC, Capan-2, RKN, H358, HCT116, KP-2, H1573, A549, MKN1, and HT1080 cells
The inhibition of cellular viability as a result of test compound treatment in a spheroid assay was measured using the CellTiter-Glow 3D Cell Viability Assay (Promega).
On Day 1, 1000 cells per well were seeded in 150 μL of complete growth media supplemented with 10% fetal bovine serum (FBS) and incubated at 37° C., in the presence of 5% CO2 in 96-well ultra-low attachment microplates (Corning) for 48 hours undisturbed to allow spheroids to form.
Following spheroid formation, cells were treated with compounds diluted in DMSO at 0.25% final DMSO concentration. Compounds were dosed in a 9-point concentration curve with three-fold dilution between concentrations. Cells were incubated in the presence of compound for 72 hours at 37° C., in the presence of 5% CO2.
Following this incubation period, the kit-provided CTG reagent was allowed to equilibrate for 30 minutes at room temperature, 150 μL of equilibrated CTG reagent was added to each well, and the plate was sealed before shaking at 250 rpm for 10 minutes at room temperature to lyse the cells, 150 μL of lysate per well was transferred to a 96-well plate and luminescence was read on a CLARIOstar plate reader.
Data was imported into the Prism software package (Graphpad) and EC50 values were calculated using the log (inhibitor) vs, response—variable slope (Four parameters) model.

SW1900 cells (KRAS G12D) [9] = assay: 3D Cell viability assay in SW1900 cells (Biological Example 6); format: cell-based; conditions: Homo sapiens; SW1990 (text: SW1900, KRAS G12D) spheroids, 72 hours
In short: (§9)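 EC50 values come from a four-parameter variable-slope fit of CellTiter-Glo 3D luminescence in spheroid cultures treated 72 h with a nine-point, three-fold dilution series.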

HPAC cells (KRAS G12D) [10] = assay: 3D Cell viability assay in HPAC cells (Biological Example 6); format: cell-based; conditions: Homo sapiens, HPAC, 72 h, HPAC (KRAS G12D) spheroids
In short: as §9

[11] = system: Capan-2 cells (KRAS G12V); assay: 3D Cell viability assay in Capan-2 cells (Biological Example 6); format: cell-based; conditions: Homo sapiens; Capan-2 (KRAS G12V) spheroids, 72 hours
In short: as §9

H358 cells (KRAS G12C) [12] = assay: 3D Cell viability assay in H358 cells (Biological Example 6); format: cell-based; conditions: Homo sapiens, NCI-H358; H358 (KRAS G12C) spheroids, 72 hours
In short: as §9

[13] = system: MKN1 cells (KRAS amplification); assay: 3D Cell viability assay in MKN1 cells (Biological Example 6); format: cell-based; conditions: Homo sapiens, MKN-1; MKN (MKN1, KRAS amplification) spheroids, 72 hours
In short: as §9

HT1080 cells (NRAS) [14] = assay: 3D Cell viability assay in HT1080 cells (Biological Example 6); format: cell-based; conditions: Homo sapiens, HT-1080; HT1080 (NRAS) spheroids, 72 hours
In short: as §9

RKN cells (KRAS G12V) [15] = assay: Cell-based pERK HTRF assay in RKN cells (Biological Example 5)
Description: as §2, §3, §4, §5, §6, §7, §8

RKN cells (KRAS G12V) [16] = assay: 3D Cell viability assay in RKN cells (Biological Example 6); format: cell-based; conditions: RKN (KRAS G12V) spheroids, 72 hours
In short: as §9

Row | IC50 (AsPC-1 cells (KRAS G12D) [1]) [nM] | IC50 (SW1900 cells (KRAS G12D) [2]) [nM] | IC50 (HPAC cells (KRAS G12D) [3]) [nM] | IC50 [4] [nM] | IC50 (H358 cells (KRAS G12C) [5]) [nM] | IC50 [6] [nM] | IC50 (HT1080 cells (NRAS) [7]) [nM] | IC50 (AsPC-1 cells (KRAS G12D) [8]) [nM] | IC50 (SW1900 cells (KRAS G12D) [9]) [nM] | IC50 (H358 cells (KRAS G12C) [12]) [nM] | IC50 [13] [nM] | IC50 (HT1080 cells (NRAS) [14]) [nM] | IC50 (RKN cells (KRAS G12V) [15]) [nM] | Compound | IC50 (HPAC cells (KRAS G12D) [10]) [nM] | IC50 [11] [nM] | IC50 (RKN cells (KRAS G12V) [16]) [nM]
1 | ≤ 100 | ≤ 100 | 100 to 1000 | ≤ 100 | ≤ 100 | ≤ 100 | > 1000 | ≤ 100 | ≤ 100 | ≤ 100 | ≤ 100 | > 1000 |  | CCN(c1nc(OC[C@@]23CCCN2C[C@H](F)C3)nc2c(F)c(-c3ccc(F)c4sc(N)c(C#N)c34)c(C(F)(F)F)cc12)[C@H]1C[C@H](C)N(C(=O)C2CC2)C1 [Compound 470] | > 1000 | ≤ 100 | 
2 | 100 to 1000 | ≤ 100 | 100 to 1000 | ≤ 100 | ≤ 100 | ≤ 100 | > 1000 | ≤ 100 | ≤ 100 | ≤ 100 | 100 to 1000 | > 1000 |  | N#Cc1c(N)sc2c(F)ccc(-c3c(C(F)(F)F)cc4c(N5CCn6nc(N7CCOCC7)cc6C5)nc(OC[C@@]56CCCN5C[C@H](F)C6)nc4c3F)c12 [Compound 485] | 100 to 1000 | ≤ 100 | 
3 | 100 to 1000 | ≤ 100 | 100 to 1000 | ≤ 100 | ≤ 100 | ≤ 100 | > 1000 | ≤ 100 | ≤ 100 | ≤ 100 | ≤ 100 | > 1000 |  | CCOC(=O)N1CC[C@H](N(CC)c2nc(OC[C@@]34CCCN3C[C@H](F)C4)nc3c(F)c(-c4ccc(F)c5sc(N)c(C#N)c45)c(C(F)(F)F)cc23)C1 [Compound 467] | > 1000 | ≤ 100 | 
4 | ≤ 100 | ≤ 100 | 100 to 1000 | ≤ 100 | ≤ 100 | ≤ 100 |  | ≤ 100 | ≤ 100 | ≤ 100 | ≤ 100 |  | ≤ 100 | CCN(c1nc(OC[C@@]23CCCN2C[C@H](F)C3)nc2c(F)c(-c3ccc(F)c4sc(N)c(C#N)c34)c(C(F)(F)F)cc12)[C@H]1C[C@@H]2COC(=O)N2C1 (atropisomer, axis not shown) [Compound 519] | 100 to 1000 | ≤ 100 | ≤ 100

From patent US20260042764A1, “COMPOSITIONS AND METHODS FOR INHIBITION OF KRAS” (TheRas, Inc., priority 2022, published 2026)
